From PMC8363620, “The ERAP1 active site cannot productively access the N-terminus of antigenic peptide precursors stably bound onto MHC class I” (Scientific Reports, 2021)
Where a SMILES comes first, the peptide text is derived from it. The star is where a group is joined. X1 = CC(C)CC(CP(=O)(O)[C@@H](N)CCc1ccccc1)C(=O)*

Columns and labels:
HLA-B*08 [1] = assay: Kinetic stability of complex by competition with SYPRO Orange (peptide dissociation); type: binding; details: 37 °C, 8 μM complex, 50X SYPRO Orange dye (4 μL in 20 μL), excitation 533 nm, emission 572 nm, non-covalent complex, each data point average of two repetitions
Experimental: (§1) The assay was performed in the Lightcycler 96 RT-PCR instrument as previously reported. Reaction mixtures (total volume 20 μL) consisted of 16 μL protein complex (final concentration 8 μΜ) and 4 μL of 50X SYPRO Orange dye (Sigma–Aldrich, S5692). Excitation wavelength was set at 533 nm and emission at 572 nm. The temperature was set at 37 °C for the duration of the experiment.

[2] = target: Endoplasmic Reticulum Aminopeptidase 1 (ERAP1) (UniProt Q9NZ08)
ERAP1 [3] = target: T1, ERAP1 (Homo sapiens, UniProt Q9NZ08); assay: Fluorigenic enzymatic assay: inhibition of ERAP1 hydrolysis of Leu-AMC; type: biochemical
T1 construct: inferred from the nickel-NTA purification; made in house; host or cells: Hi5 insect cells, recombinant baculovirus
Experimental: Expression and purification of ERAP1 was performed as described previously. Briefly, ERAP1 was expressed in Hi5 insect cells after infection with recombinant baculovirus at 27 °C. Protein was isolated by affinity chromatography using nickel-nitrilotriacetic acid–agarose beads. Protein aliquots were kept at − 80 °C in Hepes/NaCl buffer pH 7.0 supplemented with 10% (v/v) glycerol, until needed.
ERAP1 enzymatic activity and inhibitor IC50 values were calculated as previously reported. Briefly, hydrolysis of the fluorescent substrate leucine-aminomethylcoumarin (Leu-AMC, Sigma–Aldrich, L2145) was followed at 460 nm (excitation at 380 nm) using a Spark 10 M (TECAN) multimode microplate reader. The IC50 of DG080 was calculated by using the equation log (inhibitor) versus response-variable slope of GraphPad Prism 8.0™.

ERAP1 [4] = target: T1, ERAP1; assay: ERAP1 trimming of MHCI-bound peptide followed by native-PAGE; type: biochemical
ERAP1 [5] = target: T1, ERAP1; details: cited from earlier work
ERAP1 [6] = target: T1, ERAP1; details: cited from earlier work; remark: listed apart in the source
HLA-B*08 [7] = details: non-covalently linked peptide, with AI9; cited from earlier work
HLA-B*08:01 = HLA-B*08:01 (Homo sapiens, UniProt P01889, A93T/A95T/D138N/E176V/E187T/K202T/Q94N/R180D/S35A/V36M/Y33D/Y91F); details: cited from earlier work
HLA-B*08(E76C) [8] = target: T2, HLA-B*08(E76C) (Homo sapiens, UniProt P01889, A93T/A95T/D138N/E100C/E176V/E187T/K202T/Q94N/R180D/S35A/V36M/Y33D/Y91F); assay: Peptide exchange with excess 9mer […] (AI9), native-PAGE; type: binding
T2 construct: made in house
Experimental: Separating gel was prepared by mixing 2.9 mL Tris–HCl 0.375 M pH 8.8 solution, 2 mL acrylamide solution 30%, 100 μL APS 10% w/v and 5 μL TEMED. Stacking gel was formed by mixing 2.14 mL Tris–HCl 0.375 M pH 8.8 solution, 0.34 mL acrylamide solution 30%, 50 μL APS 10% w/v and 5 μL TEMED. Sample loading buffer was formed by mixing 62.5 mM Tris–HCl pH 6.8 solution, 25% v/v glycerol and 1% v/v bromophenol blue solution. Running buffer consists of 25 mM Tris-base and 192 mM glycine. Electrophoresis is conducted at 4 °C, 100 V for 5 h. 1,5 µg of MHC I-peptide complexes and 3 µg of ERAP1 were used.

HLA-B*08(E76C) [9] = target: T2, HLA-B*08(E76C); assay: Kinetic stability of complex by competition with SYPRO Orange (peptide dissociation); type: binding; details: 37 °C
Experimental: as §1

ERAP1 [10] = target: T1, ERAP1; assay: ERAP1 trimming of MHCI-bound peptide followed by MALDI-TOF-MS; type: biochemical; details: 20 nM or 100 nM ERAP1; stopped with TFA; 100 mM DTT added to free peptide
Experimental: To confirm the above finding we followed the trimming reaction by MALDI-TOF–MS which allows the concurrent detection of several peptide species. HLA-B*08(E76C)- […] was incubated with either 20 nM or 100 nM of ERAP1 and the reaction was stopped by the addition of TFA and flash-frozen. MALDI-TOF–MS analysis was performed as described before, but with the addition of 100 mM DTT to reduce the disulfide linkage to the complex so that the freed peptide can be detected (Fig. 2D).
Detection of peptides bound onto ΗLA-B*08:01 by MALDI-TOF–MS was performed as previously described[17] with the exception that 100 mM DTT was added to 10 μL samples of ΗLA-B*08:01(E76C) protein complexes to break the disulfide bond and allow detection of the peptide.

HLA-B*08:01(E76C) = HLA-B*08:01(E76C) (Homo sapiens, UniProt P01889, A93T/A95T/D138N/E176V/E187T/K202T/Q94N/R180D/S35A/V36M/Y33D/Y91F); assay: Thermal shift assay (DSF), melting temperature of HLA-B*08(E76C)/peptide complex; type: physicochemical; details: purified complex, Fig. 1F three repetitions shown
Experimental: The assay as well as the calculation of the melting temperature (Tm) of the complexes HLA-B*08:01(E76C)-DG080 and HLA-B*08:01(E76C)-AI12Cys were performed as previously reported.

ERAP1 [11] = target: T1, ERAP1; assay: ERAP1 ternary complex formation, native-PAGE band shift; type: binding; details: equimolar mixture of ERAP1 and complex
Description: The phosphinic head of the DG080 pseudopeptide should provide it with high affinity for the active site of ERAP1. To validate this assumption, we mixed free DG080 with ERAP1 and followed ERAP1 activity using the small fluorigenic substrate L-Leucine-7-amido-4-methylcoumarin (Leu-AMC)[24]. […] Due to the low amounts of complex available, we performed assays at a fixed concentration of 1 μΜ for both free DG080 and HLA-B*08(E76C)-DG080 complex. At that concentration, free DG080 was able to inhibit almost 90% of ERAP1 activity, consistent with its measured IC50. […] We conclude that although DG080 in solution has full access to the ERAP1 active site, DG080 covalently bound onto HLA-B*08 has very limited access to the active site of ERAP1, possibly due to steric hindrances that limit a proper binding orientation necessary so that the ERAP1 active site can approach the MHCI binding groove. To validate the stability of the HLA-B*08(E76C)-DG080 versus ERAP1 trimming or peptide exchange, we first incubated the complex with 20 nM ERAP1 at 37 °C for 1 h and analyzed the sample by native-PAGE (Fig. 4C). […] To further explore a potential interaction between ERAP1 and the phosphinic N-terminus of the peptide bound onto HLA-B*08, we analyzed an equimolar mixture of ERAP1 with HLA-B*08(E76C)-DG080 by native PAGE (Fig. 4D). […]

[12] = 20 nM ERAP1, up to 2 h (0–120 min)

Compound: ARAALRSRYWAI [listing 1 of 2 here]
- half-life of complex (t1/2) (HLA-B*08 [1]): 7 ± 1 min

Compound: phosphinic pseudopeptide DG080, hFΨ[P(O)(OH)CH2]…
- inhibition of ERAP1 hydrolysis of Leu-AMC by titrated free DG080, IC50 [2]: 350 nM
- inhibition of ERAP1 hydrolysis of the fluorigenic substrate at a fixed 1 μΜ of free DG080 [2]: 90%

Compound: CC(C)CC(CP(=O)(O)[C@@H](N)CCc1ccccc1)C(=O)NCC(=O)N[C@@H](CO)C(=O)NCC(=O)N[C@@H](CO)C(=O)NCC(=O)N[C@@H](CO)C(=O)N[C@@H](C)C(=O)N[C@@H](C)C(=O)N[C@@H](CCCCN)C(=O)N[C@@H](CCCCN)C(=O)N[C@@H](CCCCN)C(=O)N[C@@H](Cc1ccc(O)cc1)C(=O)N[C@@H](CS)C(=O)N[C@@H](CC(C)C)C(=O)O (stereo partly shown) [DG080] (X1-GSGSGSAAKKKYCL-OH)
- inhibition at 1 µM (ERAP1 [3]; free peptide, 1 μM, Leu-AMC hydrolysis, two measurements): ~90%
- IC50 (ERAP1 [3]; free peptide, substrate Leu-AMC, excitation 380 nm, emission 460 nm, log(inhibitor) vs response-variable slope, each point average of two measurements): 350 ± 89 nM

Compound: ARAALRSRYWAI [listing 2 of 2 here]
- ERAP1 trimming: change in electrophoretic mobility (native-PAGE) (ERAP1 [4]; [12]): ERAP1 was able to modify the electrophoretic mobility
- ERAP1 trimming half-life, MHCI-bound peptide (native-PAGE) (ERAP1 [5]): 18 min
- ERAP1 trimming while bound onto HLA-B*08:01 (ERAP1 [5]; non-covalent complex, compared with solution): ERAP1 can apparently trim this peptide while it is bound onto HLA-B*08:01, albeit slower than in solution
- ERAP1 trimming half-life, MHCI-bound peptide (MALDI-TOF-MS) (ERAP1 [6]): 20 to 30 min
- peptide exchange (native-PAGE) (HLA-B*08 [7]): similarly to the non-covalently linked AI12 peptide
- stability of complex with HLA-B*08:01 (HLA-B*08:01): thermodynamically stable but kinetically labile complex

Compound: ARAALRSRYWCI [disulfide-linked HLA-B*08/peptide complex]
- ERAP1 trimming: change in electrophoretic mobility (native-PAGE) (ERAP1 [4]; [12]): no change in electrophoretic mobility was observed
- peptide exchange (native-PAGE) in presence of DTT (HLA-B*08(E76C) [8]; 100 μM ALRSRYWAI + DTT (100 μM in Fig. 2B legend), incubation at RT): full exchange of the ARAALRSRYWCI with ALRSRYWAI
- peptide exchange (electrophoretic mobility in native-PAGE) (HLA-B*08(E76C) [8]; excess ALRSRYWAI (100 μM), 60 min at RT, no DTT): did not alter the electrophoretic mobility of the complex in native-PAGE suggesting no peptide exchange
- half-life of complex (t1/2) (HLA-B*08(E76C) [9]; SYPRO Orange competition, 8 μM complex, 50X SYPRO Orange dye (4 μL in 20 μL), excitation 533 nm, emission 572 nm, each data point average of three repetitions): 450 ± 38 min
- slowing of dye access to MHC binding groove by covalently linking the peptide (HLA-B*08(E76C) [9]; vs non-covalent HLA-B*08-ARAALRSRYWAI complex): almost 2 orders of magnitude
- time-dependent decrease of 12mer peptide on incubation with ERAP1 (MALDI-TOF-MS) (ERAP1 [10]): no time-dependent decrease of the 12mer peptide
- melting temperature (Tm) (HLA-B*08:01(E76C)): 44.0 ± 0.5 °C

Compound: hFΨ[P(O)(OH)CH2]LGSGSGSAAKKKYCL [HLA-B*08(E76C)-DG080, disulfide-linked HLA-B*08/ phosphinic peptide complex]
- effect on ERAP1 enzymatic activity (ERAP1 [3]; complex, 1 μM, Leu-AMC hydrolysis, two measurements): unable to fully inactivate ERAP1, and had only a marginal effect on its enzymatic activity
- ERAP1 trimming: change in electrophoretic mobility (native-PAGE) (ERAP1 [4]; 20 nM ERAP1, 37 °C, 1 h): No change in electrophoretic mobility was observed
- peptide exchange (electrophoretic mobility in native-PAGE) (HLA-B*08(E76C) [8]; excess (100 μM) ALRSRYWAI, 37 °C, 1 h): no change in electrophoretic mobility was evident
- band shift with ERAP1 (stable ternary complex formation) (ERAP1 [11]): No band shifts were evident
